Experimental data taken from paper PMC6295334 (ACS chemical biology, 2017).
Read-outs that look alike come from different tables or passages of the source.

Assays:
Alg44 [1] = target: T1, Alg44 (Pseudomonas aeruginosa, UniProt Q9HY69); experiment: intact protein LC-MS adduct; type: binding
Alg44 [2] = target: T1, Alg44; experiment: intact protein LC-MS adduct; type: binding; remark: listed apart in the source

T1 sequence (Q9HY69 14-122): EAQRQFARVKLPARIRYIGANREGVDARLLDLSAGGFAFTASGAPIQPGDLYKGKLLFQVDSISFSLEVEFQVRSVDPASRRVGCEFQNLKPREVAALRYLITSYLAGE

CCC1(C)Cc2ccccc2-c2nc3[nH][nH]c(=S)n3c(=O)c21 (centres unmarked) [compound 925]
IC50 (Alg44 [1]): 58.1 ± 1.2 µM

AC1LFHI9
IC50 (Alg44 [2]): 63.5 ± 1.3 µM
